This is an account of results in US20180344805A1, “GLYCOLIPID COMPOUNDS AND THEIR USES IN THE TREATMENT OF TUMOURS” (Agalimmune Limited (GB/GB), priority 2015, published 2018).

The test system of assay [1] is CHO-K1 cells. Kind of assay: Complement Dependent Cytotoxicity Assay. As to conditions: for Lysis of glycolipid-labelled cells by human serum complement: CHO-K1 cells labelled with glycolipid, 50% human serum, FIGS. 3 to 5; for EC50: Cricetulus griseus, CHO-K1 cells labelled with glycolipid 1 hour at 37° C., then 50% human serum complement 1 hour at 37° C., cell viability by CellTiter-Glo. The assay is classed as cell-based. The procedure:
CHO-K1 cells were harvested from cell culture flasks, counted and resuspended in PBS to a cell density of 5×10^6 cells/ml. Each glycolipid was serially diluted in PBS across nine 1.5 ml centrifuge tubes so that the final volume in the tubes was 100 μl. To each tube, 100 μl of the CHO-K1 cell suspension was added and the tubes incubated for 1 hour at 37° C. After an hour the tubes were placed on ice for 5 minutes and then the cells washed 3 times with 500 μl of ice-cold PBS. The cells were resuspended in a final volume of 250 μl of ice-cold PBS and 50 μl aliquots were transferred to duplicate wells of a 96 well plate. To each well containing cells 50 μl of 100% normal or heat-inactivated (30 minutes at 56° C.) human serum complement (Innovative Research) was added so that the final concentration of human serum was 50%. The plate was incubated at 37° C. for 1 hour, after which cell viability was measured using CellTiter-Glo reagent (Promega) read on a EnVision plate reader (Perkin Elmer).
(In ATP-based viability assays light output follows the ATP content of the culture.)

In assay [2] the test system is CHO-K1 cells. Kind of assay: Anti-Gal Recruitment Assay. Format: cell-based. The conditions noted are these: CHO-K1 cells incubated with glycolipid 1 hour at 37° C.; monoclonal anti-Gal IgG1, FITC-conjugated anti-human IgG, flow cytometry; FIGS. 1 and 2. The protocol: CHO-K1 cells were harvested from cell culture flasks, counted and resuspended in PBS to a cell density of 5×10^6 cells/ml. Each glycolipid was serially diluted in PBS across nine 1.5 ml centrifuge tubes so that the final volume in the tubes was 100 μl. To each tube, 100 μl of the CHO-K1 cell suspension was added and the tubes incubated for 1 hour at 37° C. After an hour the cells were pelleted by centrifugation at 400 g for 3 minutes and resuspended in 500 μl of PBS+0.1% BSA. This was repeated twice more to wash the cells. After the final wash the cells were resuspended in 100 μl of monoclonal anti-Gal IgG1 diluted 1:8 in PBS+0.1% BSA. The tubes were incubated on ice for 30 minutes. After 30 minutes the cells were pelleted by centrifugation at 400 g for 3 minutes and resuspended in 500 μl of PBS+0.1% BSA. This was repeated twice more to wash the cells. After the final wash the cells were resuspended in 100 μl of FITC-conjugated mouse anti-human IgG (Biolegend) and the tubes incubated on ice for 30 minutes. After 30 minutes the cells were pelleted by centrifugation at 400 g for 3 minutes and resuspended in 500 μl of PBS+0.1% BSA. This was repeated twice more to wash the cells. […] After 5 minutes incubation on ice the cells were analysed on a Cytomics FC500 flow cytometer (Beckman Coulter). […]
Background: In flow cytometry, cells or beads pass a laser one at a time.

In general, EC50 refers to the midpoint of the concentration-response curve. Read a low EC50 as greater potency.

Regarding `CCCCCCCC/C=C\CCCCCCCC(=O)OCC(COP(=O)(O)OCCNC(=O)CCCCC(=O)NCC(=O)NCC(=O)N(CC(=O)O)CC(=O)NCC(=O)NCC(=O)N(CC(=O)O)CC(=O)NCCNC(=O)CN(CC(=O)O)C(=O)CNC(=O)CNC(=O)CN(CC(=O)O)C(=O)CNC(=O)CNC(=O)CCCCC(=O)NCCCO[C@@H]1OC(CO)[C@@H](O[C@@H]2OC(CO)[C@H](O)[C@H](O[C@H]3OC(CO)[C@H](O)[C@H](O)C3O)C2O)[C@H](O)C1NC(C)=O)OC(=O)CCCCCCC/C=C\CCCCCCCC` (some centres unmarked) [Example 1, Galili-CMG2-DOPE], in the assay on CHO-K1 cells [1], the “Lysis of glycolipid-labelled cells by human serum complement” value is on record as “are lysed by human serum complement” and the EC50 was determined as 7.02 µM. Also, the “Membrane incorporation and recruitment of anti-Gal antibody” value in the assay with CHO-K1 cells [2] is “incorporates into the plasma membrane of CHO-K1 cells and presents the alpha-Gal epitope for recognition by anti-Gal antibodies”.
Regarding `CCCCCCCC/C=C\CCCCCCCC(=O)OCC(COP(=O)(O)OCCNC(=O)CCCCC(=O)NCCCO[C@@H]1OC(CO)[C@@H](O[C@@H]2OC(CO)[C@H](O)C(O[C@H]3OC(CO)[C@H](O)C(O)C3NC(C)=O)C2O)C(O)C1NC(C)=O)OC(=O)CCCCCCC/C=C\CCCCCCCC` (some centres unmarked) [Example 3, GalNAcα1-3Galβ1-4GlcNAc-Ad-DOPE], in the assay with CHO-K1 cells [1], the “Lysis of glycolipid-labelled cells by human serum complement” value is listed as “are lysed by human serum complement” and the EC50 turned out to be 86.8 µM.
